Data reported in US20050115197A1, “Antimicrobial barrier coatings and methods of use” (priority 2003, published 2005).

Test system: Aspergillus niger (ATCC 6275) and Penicillium pinophilum (ATCC 9644) mixture (interior films); Aureobasidium pullulans (ATCC 9348) (exterior films)
Test: dry-film mildew resistance test of sealer/barrier compositions on coated filter paper on malt agar
Format: cell-based
Details: level of fungicide in the sealer/barrier composition; up to 14 days incubation
Protocol: The above sealer/barrier compositions were tested to determine the performance of dry-films as protective sealers in preventing the development of mildew during testing on porous cellulosic substrates. Several test samples of the composition were prepared with levels of fungicide ranging from 250 ppm to 3000 ppm. In addition, a composition was prepared without fungicide for use as a control.
Individual samples of the sealer/barrier composition were weighed out. Fungicide was added to the samples of the sealer/barrier coating compositions in a ladder series of levels (e.g., 250, 500, 750 1000 ppm, etc.) and thoroughly mixed. The test porous cellulosic substrates consisting of Whatman No. 30 filter paper were first brush coated each with two (2) coats of test composition, and allowed to dry in a protected location. Duplicate two inch squares were then cut from the coated filter paper specimens and placed on the surface on malt agar petri plates.
Test inoculums consisting of aqueous spore suspensions at a concentrations of ˜10^5 spores were prepared in sterile water. Those films (compositions) which were intended for use in interior application were inoculated with a mixture of Aspergillus niger (ATCC 6275) and Penicillium pinophilum (ATCC 9644). Films intended for exterior application were inoculated with Aureobasidium pullulans (ATCC 9348). […]

In the case of `c1ccc2[nH]c(-c3cscn3)nc2c1` [biocide, 2-(4-thiazoyl)benzimidazole], the “biocide level capable of preventing mold development on the substrate” value is reported as at most 250 ppm.
